Assay [1] relates to BM CD34+-derived cells. Description: Live cell imaging of cell division. The format is cell-based, human. The method, then: At least 20,000 BM CD34^+-derived cells were put into Ibidi μ-slide VI (Ibidi GmbH) in cell culture medium. Analysis was done in an insulated chamber maintained at 37° C., 5% CO2. A series of images were collected every 5 min for 18 to ˜24 h with an Olympus IX70 inverted microscope with 300 W Xenon lamp illumination using 10× or 20× objectives under bright field. Image stacks were further analyzed by ImageJ to analyze cell division with or without blebbistatin treatment.

The subject of assay [2] is CD34+ cells (CFU-E, BFU-E). Description: Erythroid progenitor number in the presence of Epo (flow cytometry). The format is cell-based, human. To be noted: SCF, IL-3 and Epo, 3 days. The method, then: FIG. 20, comprising FIG. 20A through FIG. 20E, illustrates the functional effects of myosin-II inhibition on HSC differentiation. FIG. 20A (Left) illustrates the enrichment of polyploid MKs by Bleb from CD34^+ cells cultured in SCF and Tpo (n=4 donors). Y-axis represents the ratios between polyploid MKs and 2n+4n MKs. […] Hill coefficient=7.0. FIG. 20A (Middle) illustrates the enrichment of BFU-E relative to CFU-GM in the absence of Epo. CD34^+-derived cells were cultured with SCF and Tpo under Bleb and progenitors were enumerated by colony forming assays. […] FIG. 20A (Right) illustrates the sensitivity of erythroid progenitors against Bleb in the presence of Epo. CD34^+ cells were cultured with SCF, IL-3 and Epo for 4 days before treating with Bleb for 3 days, followed by flow cytometry with Hoechst 33342 to stain for nuclei. BFU-E=CD34^+IL-3R^+CD36^-; CFU-E=CD34^-IL-3R^-CD36^+. Absolute values were normalized to […] initial cell input and fit to dose-response curves: […] FIG. 20B is a graph depicting the limiting dilution analyses showing functional LT-HSCs after myosin inhibition. Human-CD34^+-derived cells were treated with Bleb for 3 days and injected intra-tibally into irradiated NSG mice. […] FIG. 20D illustrates the kinetics of human-CD41^+ plts in circulation were measured after transplantation of human CD34^+-derived cells and normalized by the initial number of CD41^+ cells transplanted. Areas under curves show significant differences between drug-treated and untreated. […] FIG. 20E is a graph showing that human-CD41^+ plts derived in vivo after transplantation into NSG mice show the normal plt size compared to human blood plts. […] Freshly purified bone marrow-derived human CD34^+ cells were obtained from either the Penn Xenograft Core Facility or AllCells (Emeryville, Calif.). Cells from at least 20 different donors were used in this study. Purity of the samples (>98%) was confirmed by flow cytometry with monoclonal antibody against human CD34. All experiments were performed in HSC expansion media ([…], Sigma) supplemented with 1× antibiotics, 20% BIT 9500 Serum Substitute (StemCell Technologies), 2 mM […] (Gibco) and the following human recombinant cytokines: SCF (100 ng/ml) and Tpo (100 ng/ml). In some occasions, the media was also supplemented by G-CSF (100 ng/ml), epidermal growth factor (EGF, 100 ng/ml), transforming growth factor beta 1 (TGF-beta1, 100 ng/ml), erythropoietin (EPO, 1 U/ml) and interleukin-3 (IL-3, 10 ng/ml). All cytokines were purchased from R&D Systems. After cells were cultured for 4 days, they were treated with different doses of cellular contractility inhibitors, including (±)-Blebbistatin (Bleb) (EMD Biosciences) and/or CH-223191 (Sigma) for indicated durations of up to 3 days.
(In general: A flow cytometer gives signals particle by particle.)

Assay [3] addresses T1, αIIbβ3 (Homo sapiens, UniProt P05106+P08514).
T1 construct: endogenous in cells; host or cells: platelet-like fragments from megakaryocytes cultured from human bone-marrow CD34+ cells
Description: Platelet activation assay, PAC-1 binding. The format is cell-based. To be noted: thrombin 1 U/mL. The protocol: For platelet-activation assays, platelet-sided fraction isolated from either MK culture or NSG blood was resuspended in Tyrode's buffer supplemented with Mg^2+ and Ca^2+, and incubated with indicated agonists for 15 min at 37° C., followed by staining with FITC-conjugated anti-human P-selectin or PAC-1 antibody (BD Bioscience), APC-conjugated anti-human CD41, and in the case of xenograft samples, PE-conjugated anti-mouse CD41 for 15 min at room temperature, followed by fixation with 1.5% paraformaldehyde. Antibody-stained samples were then analyzed by flow cytometry. Platelet number was evaluated by mixing each sample with a defined number (˜10,000 beads per sample) of APC-conjugated beads (BD Bioscience). The number of platelets per sample was evaluated by: number of CD41^+ events/number of APC-bead events multiplied by total known number of APC-bead added per sample.

Assay [4] relates to BM CD34+-derived cells. Description: Micropipette aspiration of CD34+-derived cells. The format is cell-based, human. The protocol:
Cells from BMCD34^+, cultured in SCF and Tpo between 3 and 8 days, were treated with 20 μM blebbistatin for 30 min to 1 h, followed by micropipette analysis. Capillary tubes of 1.0-mm inner diameter (World Precision Instruments) were pulled into micropipettes using a Flaming-Brown Micropipette Puller (Sutter Instrument) and cut further using a deFonbrune-type microforge (Vibratome). The average micropipette diameter was around 3 μm. Micropipettes were attached to a dual-stage water manometer with reservoirs of adjustable height. Suction was applied by a syringe, and the corresponding pressure was measured by pressure transducer (Validyne), calibrated by a mercury U-tube manometer. Pressures for different experiments ranged from 0.5 to 20 kPa. In some cases, cells were labeled with a very low dose (10 nM) of fluorescent BODIPY-Taxol (Invitrogen) for 1 h at 37° C. to visualize the initial stage of microtubule polymerization during micropipette aspiration.

Assay [5] deals with CD34+-derived cells (HSC, MPP, CPP). Description: HSC/P numbers on FN-coated gels of different elasticity. As to conditions: drug-treated cells. The format is cell-based, human. The protocol: 15-18 mm glass coverslips were treated in order with ethanol, RCA solution (1:1:3 for 15N NH4OH:30% H2O2:dH2O), methylene chloride and 0.1% allyltrichlorosilane solution. To control gel's stiffness, n,n′ methylene-bis-acrylamide and the acrylamide solution was mixed at the ratio of 0.07%:3% for soft gels (0.3 kPa), or the ratio of 0.3%:8% for stiff gels (34 kPa), final concentrations in PBS. ˜25 μl of the mixed solution was polymerized on a coverslip with 10% ammonium persulfate and n,n,n′,n′-tetramethylethylenediamine. During polymerization, gels were covered with another coverslip to obtain a uniform gel surface with the final thickness of ˜100 μm. Different concentrations of FN were then cross-linked with polymerized gels using sulfo-SANFAH (Pierce, Rockford, Ill.) by UV-crosslinking Thickness of gels and relative FN concentrations were verified by confocal microscopy. It is assumed that most FN from the solution was attached to gels (>70%). FN-coated gels were then treated with UV in PBS for at least 1 hr before use in cell culture.

Read-outs that look alike come from different tables or passages of the source.

As a reminder, the IC50 is the midpoint of a concentration-inhibition curve.

T1 sequence (P08514 32-887 limits assumed): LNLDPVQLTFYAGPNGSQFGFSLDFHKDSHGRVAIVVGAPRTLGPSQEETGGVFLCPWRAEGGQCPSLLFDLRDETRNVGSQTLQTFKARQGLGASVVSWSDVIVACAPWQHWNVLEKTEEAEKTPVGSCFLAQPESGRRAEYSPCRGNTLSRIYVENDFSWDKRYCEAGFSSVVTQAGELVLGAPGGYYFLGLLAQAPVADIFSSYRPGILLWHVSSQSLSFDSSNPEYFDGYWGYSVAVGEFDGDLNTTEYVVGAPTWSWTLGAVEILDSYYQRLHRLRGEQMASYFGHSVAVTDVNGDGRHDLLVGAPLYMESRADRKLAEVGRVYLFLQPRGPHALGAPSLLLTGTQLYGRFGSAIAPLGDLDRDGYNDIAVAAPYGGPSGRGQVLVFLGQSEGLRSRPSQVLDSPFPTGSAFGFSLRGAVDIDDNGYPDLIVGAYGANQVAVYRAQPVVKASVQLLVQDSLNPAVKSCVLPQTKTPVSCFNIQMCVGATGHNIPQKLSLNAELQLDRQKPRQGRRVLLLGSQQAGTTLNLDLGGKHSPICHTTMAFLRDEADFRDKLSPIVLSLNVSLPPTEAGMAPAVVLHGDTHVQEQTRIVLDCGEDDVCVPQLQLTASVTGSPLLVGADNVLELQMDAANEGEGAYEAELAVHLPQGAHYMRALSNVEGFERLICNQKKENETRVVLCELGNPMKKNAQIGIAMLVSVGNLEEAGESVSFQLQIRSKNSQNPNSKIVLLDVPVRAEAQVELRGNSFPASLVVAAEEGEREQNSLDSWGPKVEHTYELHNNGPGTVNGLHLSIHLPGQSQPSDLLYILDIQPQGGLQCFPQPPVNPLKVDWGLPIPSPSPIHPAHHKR
T1 sequence (P08514 891-1039 partner limits assumed): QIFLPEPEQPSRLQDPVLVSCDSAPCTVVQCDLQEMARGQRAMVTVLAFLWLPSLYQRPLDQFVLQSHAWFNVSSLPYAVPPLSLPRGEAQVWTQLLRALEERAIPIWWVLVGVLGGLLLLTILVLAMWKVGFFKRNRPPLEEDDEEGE
T1 sequence (P05106 27-788): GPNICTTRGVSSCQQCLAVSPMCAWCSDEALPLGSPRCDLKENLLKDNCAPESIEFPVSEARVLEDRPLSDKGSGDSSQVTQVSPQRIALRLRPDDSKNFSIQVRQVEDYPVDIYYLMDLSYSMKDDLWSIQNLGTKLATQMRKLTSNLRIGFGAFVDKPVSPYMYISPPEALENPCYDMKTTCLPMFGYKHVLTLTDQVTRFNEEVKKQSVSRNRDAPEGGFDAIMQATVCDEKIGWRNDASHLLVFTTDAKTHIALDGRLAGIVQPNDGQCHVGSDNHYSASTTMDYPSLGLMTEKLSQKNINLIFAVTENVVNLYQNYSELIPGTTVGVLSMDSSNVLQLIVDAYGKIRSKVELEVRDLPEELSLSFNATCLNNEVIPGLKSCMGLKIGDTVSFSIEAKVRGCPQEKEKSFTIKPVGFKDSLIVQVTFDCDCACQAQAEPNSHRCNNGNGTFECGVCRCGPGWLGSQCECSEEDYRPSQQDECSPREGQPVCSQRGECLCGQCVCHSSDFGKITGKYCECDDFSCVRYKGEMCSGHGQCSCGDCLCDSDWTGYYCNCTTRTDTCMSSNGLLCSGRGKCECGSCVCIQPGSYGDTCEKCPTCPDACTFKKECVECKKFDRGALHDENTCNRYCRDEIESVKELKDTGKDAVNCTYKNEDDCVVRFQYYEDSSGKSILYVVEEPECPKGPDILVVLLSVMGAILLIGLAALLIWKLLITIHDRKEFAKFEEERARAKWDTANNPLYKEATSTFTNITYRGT

Turning to `Cc1ccc2c(c1)C(=O)C1(O)CCN(c3ccccc3)C1=N2` (racemic) [blebbistatin, (±)-blebbistatin], the “cells showing reversal of cytokinesis” value in assay [1] is recorded as approximately 80%. The half-maximal inhibitory concentration (IC50) in assay [2] (read-out: BFU-E 2n IC50) came out at 10.9 µM. Also, the IC50 in assay [2] (read-out: BFU-E 4n IC50) was determined as 13 µM. Besides, the concentration for half-maximal inhibition (IC50) in assay [2] (read-out: CFU-E 2n IC50) turned out to be 8.7 µM. Further, the IC50 in assay [2] (read-out: CFU-E 4n IC50) stood at 12.9 µM. The “PAC-1 binding of platelets derived from drug-exposed MKs” value in assay [3] is given as “normal PAC-1 binding”. For the same compound, in assay [4] (20 μM), the “median fragmentation threshold (effective membrane tension)” value is approximately 1 mN/m. Besides, in assay [4] (20 μM, unfragmented cells), the “compliance, median slope of aspiration length vs tension” value is listed as 3.79±0.84 (mN/m)^−1. For the same compound, in assay [4] (after 30 min), the increase in compliance result is on record as “approximately four” and the “treated cells that fragment” value was 40%. Besides, in assay [5], the “CPP number soft vs stiff, mean” value amounted to 0.9±0.1; the “MPP number soft vs stiff, mean” value is 1.0±0.1; the “increase of HSC-to-MPP ratio with increasing FN density” value is on record as more than 2 fold; the “ratio of HSC numbers soft vs stiff, mean” value was 1.1±0.2.
